{"source": "patent US9079901B2", "about": "“Fused heterocyclic compounds as ion channel modulators” (Gilead Sciences, Inc., priority 2010, dated 2015)", "target": "wild-type human cardiac sodium channel, hNav1.5 (late sodium current) in HEK293 cells (Homo sapiens, UniProt Q14524)", "sequence (Q14524 whole entry)": "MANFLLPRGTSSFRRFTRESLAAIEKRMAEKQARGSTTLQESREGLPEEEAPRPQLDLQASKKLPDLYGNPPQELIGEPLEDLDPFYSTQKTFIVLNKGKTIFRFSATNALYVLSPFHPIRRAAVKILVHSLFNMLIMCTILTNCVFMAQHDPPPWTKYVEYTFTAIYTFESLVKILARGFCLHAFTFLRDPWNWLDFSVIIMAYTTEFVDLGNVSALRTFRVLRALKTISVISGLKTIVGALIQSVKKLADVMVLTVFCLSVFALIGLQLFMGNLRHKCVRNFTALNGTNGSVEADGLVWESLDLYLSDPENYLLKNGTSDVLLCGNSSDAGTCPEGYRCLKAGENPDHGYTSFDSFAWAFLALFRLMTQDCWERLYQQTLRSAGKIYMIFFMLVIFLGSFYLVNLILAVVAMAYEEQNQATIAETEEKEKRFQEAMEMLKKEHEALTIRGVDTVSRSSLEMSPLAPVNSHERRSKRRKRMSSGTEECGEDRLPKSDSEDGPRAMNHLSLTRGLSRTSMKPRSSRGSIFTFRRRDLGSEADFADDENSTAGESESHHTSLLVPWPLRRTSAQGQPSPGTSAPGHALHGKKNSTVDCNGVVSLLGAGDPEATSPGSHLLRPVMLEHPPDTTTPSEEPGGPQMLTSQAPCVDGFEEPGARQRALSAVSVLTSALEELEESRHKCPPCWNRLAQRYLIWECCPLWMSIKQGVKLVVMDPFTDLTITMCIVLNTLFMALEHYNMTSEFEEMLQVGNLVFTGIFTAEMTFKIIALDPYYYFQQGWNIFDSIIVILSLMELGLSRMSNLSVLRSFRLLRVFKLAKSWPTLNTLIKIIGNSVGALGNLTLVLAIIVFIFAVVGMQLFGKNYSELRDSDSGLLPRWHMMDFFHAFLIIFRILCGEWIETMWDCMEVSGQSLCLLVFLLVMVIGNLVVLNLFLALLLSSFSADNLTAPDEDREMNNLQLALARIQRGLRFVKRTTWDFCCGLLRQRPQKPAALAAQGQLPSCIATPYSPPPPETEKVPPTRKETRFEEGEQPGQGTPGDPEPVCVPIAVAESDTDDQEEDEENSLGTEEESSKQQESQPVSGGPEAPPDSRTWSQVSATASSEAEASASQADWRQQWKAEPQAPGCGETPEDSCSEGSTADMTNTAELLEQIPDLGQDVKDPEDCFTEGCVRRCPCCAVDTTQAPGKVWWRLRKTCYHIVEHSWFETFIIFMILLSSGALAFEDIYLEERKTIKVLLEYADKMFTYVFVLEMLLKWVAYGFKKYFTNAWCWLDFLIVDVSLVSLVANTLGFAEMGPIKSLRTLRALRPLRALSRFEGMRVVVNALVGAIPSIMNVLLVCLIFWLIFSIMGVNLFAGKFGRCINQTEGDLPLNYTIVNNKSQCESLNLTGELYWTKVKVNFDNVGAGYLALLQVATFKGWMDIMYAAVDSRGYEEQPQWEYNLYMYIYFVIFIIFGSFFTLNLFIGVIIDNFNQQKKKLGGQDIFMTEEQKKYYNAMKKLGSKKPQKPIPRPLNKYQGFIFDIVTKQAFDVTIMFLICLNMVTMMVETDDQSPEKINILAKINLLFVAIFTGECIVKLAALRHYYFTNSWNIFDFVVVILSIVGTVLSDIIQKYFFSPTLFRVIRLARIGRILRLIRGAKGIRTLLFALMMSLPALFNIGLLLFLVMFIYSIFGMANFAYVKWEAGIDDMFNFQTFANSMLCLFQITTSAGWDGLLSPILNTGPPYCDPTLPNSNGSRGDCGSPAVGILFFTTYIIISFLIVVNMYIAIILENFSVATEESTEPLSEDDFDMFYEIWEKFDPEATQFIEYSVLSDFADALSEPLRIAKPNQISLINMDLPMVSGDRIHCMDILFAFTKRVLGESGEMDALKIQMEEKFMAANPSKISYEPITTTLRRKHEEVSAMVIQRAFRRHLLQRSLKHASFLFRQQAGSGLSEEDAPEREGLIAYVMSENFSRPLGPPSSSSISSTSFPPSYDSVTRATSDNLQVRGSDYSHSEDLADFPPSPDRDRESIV", "assay": "Late INa screening assay (automated whole-cell patch clamp, PatchXpress)", "assay_type": "cell-based", "conditions": "HEK293, compound at 1 μM; late INa generated with 10 μM Tefluthrin (or 50 nM ATX II); HEK293 hNav1.5; read-out: Late INa 1 μM (percent block of late INa)", "protocol": "The late sodium current (Late INa) and peak sodium current (Peak INa) assays are performed on an automated electrophysiology platform, PatchXpress 7000A (MDS Analytical Technologies, Sunnyvale, Calif.), which uses the whole cell patch clamp technique to measure currents through the cell membrane of up to 16 cells at a time. The assay uses an HEK293 (human embryonic kidney) cell line heterologously expressing the wild-type human cardiac sodium channel, hNav1.5, purchased from Millipore (Billerica, Mass.). No beta subunits were coexpressed with the Na channel alpha subunit. Cells are maintained with standard tissue culture procedures and stable channel expression is maintained with 400 μg/ml Geneticin in the culture medium. Cells isolated for use on PatchXpress are incubated for 5 minutes in Versene 1× and then for 2 minutes in 0.0125% Trypsin-EDTA (both at 37° C.) to ensure that 80-90% of the cells are single and not part of a cell cluster. Experiments are carried out at 24-27° C.\nFor both the Late INa and Peak INa assays, series resistance compensation is set to 50% and whole-cell compensation is performed automatically. Currents are low-pass filtered at 10 kHz and digitized at 31.25 kHz. Currents through open sodium channels are automatically recorded and stored in the DataXpress2 database (MDS Analytical Technologies, Sunnyvale, Calif.). Analysis is performed using DataXpress2 analysis software and data are compiled in Excel.\nCompound stocks are routinely made in glass vials to 10 mM in dimethyl sulfoxide (DMSO). In some cases, when compounds are not soluble in DMSO, they are made in 100% ethanol. Stocks are sonicated as necessary. The extracellular solution for screening Late INa is composed of: 140 mM NaCl, 4 mM KCl, 1.8 mM CaCl2, 0.75 mM MgCl2, and 5 mM HEPES with pH adjusted to 7.4 using NaOH. The extracellular solution for screening Peak INa is composed of: 20 mM NaCl, 120 mM N-methyl-D glucamine, 4 mM KCl, 1.8 mM CaCl2, 0.75 mM MgCl2, and 5 mM HEPES with pH adjusted to 7.4 using HCl. The intracellular solution used to perfuse the inside of the cells for both the Late INa and Peak INa assays contains: 120 mM CsF, 20 mM CsCl, 5 mM EGTA, 5 mM HEPES and pH adjusted to 7.4 with CsOH. Compounds are diluted in extracellular solution to 10 μM in glass vials and then transferred to glass well plates before robotic addition to the cells. The 0Na extracellular solution used at the end of each experiment for the Late INa and Peak INa assays to measure baseline current contains: 140 mM N-methyl-D-glucamine; 4 mM KCl; 1.8 mM CaCl2; 0.75 mM MgCl2; 5 mM HEPES and pH was adjusted to 7.4 with HCl.\nFor the Late INa assay, sodium channels are activated every 10 seconds (0.1 Hz) by depolarizing the cell membrane to −20 mV for 250 milliseconds (ms) from a holding potential of −120 mV. In response to a −20 mV voltage step, typical Nav1.5 sodium currents activate rapidly to a peak negative current and then inactivate nearly completely within 3-4 ms.\nAll compounds are tested to determine their activity in blocking the late sodium current. Late INa current is generated by adding 10 μM Tefluthrin (pyrethroid) to the extracellular solution while recording Na currents. For some experiments, 50 nM ATX II (sea anemone toxin), another late INa activator, was used to generate the late component. Both activators generate late components that are large enough that block of the late component by compounds can be measured easily. For the purposes of the screening, late INa is defined as the mean current between 225 ms and 250 ms after stepping to −20 mV to activate Na channels. After establishing the whole cell recording configuration, late INa activators are added to each well 4 times over a 16-17 minute period so that the late component of the Na current reaches a stable value. Compounds are then added (typically at 10 μM), in the presence of late INa activator, with 3 additions over the course of 7 or 8 minutes. […]"}
{"molecule": "O=c1n(CCc2cnccn2)nc2ccc(-c3ccc(OC(F)(F)F)cc3)cn12", "note": "[compound 114, 2-(2-(pyrazin-2-yl)ethyl)-6-(4-(trifluoromethoxy)phenyl)-[1,2,4]triazolo[4,3-a]pyridin-3(2H)-one]", "values": [{"measurement": "inhibition at 1 µM", "result": 14.4, "unit": "%"}]}
{"molecule": "COc1cccc(CCn2nc3ccc(-c4ccc(OC(F)(F)F)cc4)cn3c2=O)n1", "note": "[compound 103, 2-(2-(6-methoxypyridin-2-yl)ethyl)-6-(4-(trifluoromethoxy)phenyl)-[1,2,4]triazolo[4,3-a]pyridin-3(2H)-one]", "values": [{"measurement": "inhibition at 1 µM", "result": 49.7, "unit": "%"}]}
{"molecule": "O=c1n(CCc2ccccn2)nc2ccc(-c3ccc(OC(F)(F)F)cc3)cn12", "note": "[compound 36, 2-(2-(pyridin-2-yl)ethyl)-6-(4-(trifluoromethoxy)phenyl)-[1,2,4]triazolo[4,3-a]pyridin-3(2H)-one]", "values": [{"measurement": "inhibition at 1 µM", "result": 48.4, "unit": "%"}]}
{"molecule": "Cc1nc(Cn2nc3ccc(-c4ccc(C(F)(F)F)cc4)cn3c2=O)oc1C", "note": "[compound 173, 2-((4,5-dimethyloxazol-2-yl)methyl)-6-(4-(trifluoromethyl)phenyl)-[1,2,4]triazolo[4,3-a]pyridin-3(2H)-one]", "values": [{"measurement": "inhibition at 1 µM", "result": 22.2, "unit": "%"}]}
{"molecule": "[2H]C([2H])([2H])c1noc(Cn2nc3ccc(-c4ccc(OC(F)(F)F)cc4)cn3c2=O)n1", "note": "[compound 169, 2-((3-trideuteromethyl-1,2,4-oxadiazol-5-yl)methyl)-6-(4-(trifluoromethoxy)phenyl)-[1,2,4]triazolo[4,3-a]pyridin-3(2H)-one]", "values": [{"measurement": "inhibition at 1 µM", "result": 24.1, "unit": "%"}]}
{"molecule": "O=c1n(CCOc2nccc(OCC3CC3)n2)nc2ccc(-c3ccc(OC(F)(F)F)cc3)cn12", "note": "[compound 179, 2-(2-(4-(cyclopropylmethoxy)pyrimidin-2-yloxy)ethyl)-6-(4-(trifluoromethoxy)phenyl)-[1,2,4]triazolo[4,3-a]pyridin-3(2H)-one]", "values": [{"measurement": "inhibition at 1 µM", "result": 30.3, "unit": "%"}]}
{"molecule": "O=c1n(CCOc2cccc(C(F)(F)F)n2)nc2ccc(-c3ccc(OC(F)(F)F)cc3)cn12", "note": "[compound 65, 6-(4-(trifluoromethoxy)phenyl)-2-(2-(6-(trifluoromethyl)pyridin-2-yloxy)ethyl)-[1,2,4]triazolo[4,3-a]pyridin-3(2H)-one]", "values": [{"measurement": "inhibition at 1 µM", "result": 21.1, "unit": "%"}]}
{"molecule": "Cc1noc(Cn2nc3ccc(-c4ccc(Cl)c(Cl)c4)cn3c2=O)n1", "note": "[compound 134, 6-(3,4-dichlorophenyl)-2-((3-methyl-1,2,4-oxadiazol-5-yl)methyl)-[1,2,4]triazolo[4,3-a]pyridin-3(2H)-one]", "values": [{"measurement": "inhibition at 1 µM", "result": 15.5, "unit": "%"}]}
{"molecule": "O=c1n(CCOc2ccccc2)nc2ccc(-c3ccc(OC(F)(F)F)cc3)cn12", "note": "[compound 28, 2-(2-phenoxyethyl)-6-(4-(trifluoromethoxy)phenyl)-[1,2,4]triazolo[4,3-a]pyridin-3(2H)-one]", "values": [{"measurement": "inhibition at 1 µM", "result": 46.3, "unit": "%"}]}
{"molecule": "Cc1c(-c2ccc(OC(F)(F)F)cc2)ccc2n[nH]c(=O)n12", "note": "[compound 187, 5-methyl-6-(4-(trifluoromethoxy)phenyl)-[1,2,4]triazolo[4,3-a]pyridin-3(2H)-one]", "values": [{"measurement": "inhibition at 1 µM", "result": 29.8, "unit": "%"}]}
{"molecule": "Cc1noc(Cn2nc3ccc(-c4ccc(OC(F)(F)F)cc4)c(C)n3c2=O)n1", "note": "[compound 188, 5-methyl-2-((3-methyl-1,2,4-oxadiazol-5-yl)methyl)-6-(4-(trifluoromethoxy)phenyl)-[1,2,4]triazolo[4,3-a]pyridin-3(2H)-one]", "values": [{"measurement": "inhibition at 1 µM", "result": 17.3, "unit": "%"}]}
{"molecule": "O=c1n(Cc2ccccn2)nc2ccc(-c3ccc(OC(F)(F)F)cc3)cn12", "note": "[compound 16, 2-(pyridin-2-ylmethyl)-6-(4-(trifluoromethoxy)phenyl)-[1,2,4]triazolo[4,3-a]pyridin-3(2H)-one]", "values": [{"measurement": "inhibition at 1 µM", "result": 11.5, "unit": "%"}]}
{"molecule": "Cc1noc(Cn2nc3ccc(-c4ccc(Cl)c(F)c4)cn3c2=O)n1", "note": "[compound 161, 6-(4-chloro-3-fluorophenyl)-2-((3-methyl-1,2,4-oxadiazol-5-yl)methyl)-[1,2,4]triazolo[4,3-a]pyridin-3(2H)-one]", "values": [{"measurement": "inhibition at 1 µM", "result": 13.9, "unit": "%"}]}
{"molecule": "O=c1n(Cc2nc(C3CC3)co2)nc2ccc(-c3ccc(OC(F)(F)F)cc3)cn12", "note": "[compound 193, 2-((4-cyclopropyloxazol-2-yl)methyl)-6-(4-(trifluoromethoxy)phenyl)-[1,2,4]triazolo[4,3-a]pyridin-3(2H)-one]", "values": [{"measurement": "inhibition at 1 µM", "result": 33.8, "unit": "%"}]}
{"molecule": "O=c1n(C2COCC2Oc2ncccn2)nc2ccc(-c3ccc(OC(F)(F)F)cc3)cn12", "note": "(stereo not shown) [compound 109, 2-(4-(pyrimidin-2-yloxy)tetrahydrofuran-3-yl)-6-(4-(trifluoromethoxy)phenyl)-[1,2,4]triazolo[4,3-a]pyridin-3(2H)-one]", "values": [{"measurement": "inhibition at 1 µM", "result": 12.9, "unit": "%"}]}
{"molecule": "O=c1n(CCOc2nccc(Oc3ccc(Cl)cc3)n2)nc2ccc(-c3ccc(OC(F)(F)F)cc3)cn12", "note": "[compound 132, 2-(2-(4-(4-chlorophenoxy)pyrimidin-2-yloxy)ethyl)-6-(4-(trifluoromethoxy)phenyl)-[1,2,4]triazolo[4,3-a]pyridin-3(2H)-one]", "values": [{"measurement": "inhibition at 1 µM", "result": 11, "unit": "%"}]}
{"molecule": "Cc1cccc(CCn2nc3ccc(-c4ccc(OC(F)(F)F)cc4)cn3c2=O)n1", "note": "[compound 48, 2-(2-(6-methylpyridin-2-yl)ethyl)-6-(4-(trifluoromethoxy)phenyl)-[1,2,4]triazolo[4,3-a]pyridin-3(2H)-one]", "values": [{"measurement": "inhibition at 1 µM", "result": 34.9, "unit": "%"}]}
{"molecule": "O=c1n(CCOc2ncc(F)c(N3CC(F)(F)C3)n2)nc2ccc(-c3ccc(OC(F)(F)F)cc3)cn12", "note": "[compound 133, 2-(2-(4-(3,3-difluoroazetidin-1-yl)-5-fluoropyrimidin-2-yloxy)ethyl)-6-(4-(trifluoromethoxy)phenyl)-[1,2,4]triazolo[4,3-a]pyridin-3(2H)-one]", "values": [{"measurement": "inhibition at 1 µM", "result": 20.5, "unit": "%"}]}
{"molecule": "Cc1ccnc(CCn2nc3ccc(-c4ccc(OC(F)(F)F)cc4)cn3c2=O)c1", "note": "[compound 58, 2-(2-(4-methylpyridin-2-yl)ethyl)-6-(4-(trifluoromethoxy)phenyl)-[1,2,4]triazolo[4,3-a]pyridin-3(2H)-one]", "values": [{"measurement": "inhibition at 1 µM", "result": 14.9, "unit": "%"}]}
{"molecule": "COc1ccc(Br)c(CCn2nc3ccc(-c4ccc(OC(F)(F)F)cc4)cn3c2=O)n1", "note": "[compound 118, 2-(2-(3-bromo-6-methoxypyridin-2-yl)ethyl)-6-(4-(trifluoromethoxy)phenyl)-[1,2,4]triazolo[4,3-a]pyridin-3(2H)-one]", "values": [{"measurement": "inhibition at 1 µM", "result": 47.9, "unit": "%"}]}
{"molecule": "O=c1n(Cc2nc(-c3ccccc3Cl)no2)nc2ccc(-c3ccc(OC(F)(F)F)cc3)cn12", "note": "[compound 33, 2-((3-(2-chlorophenyl)-1,2,4-oxadiazol-5-yl)methyl)-6-(4-(trifluoromethoxy)phenyl)-[1,2,4]triazolo[4,3-a]pyridin-3(2H)-one]", "values": [{"measurement": "inhibition at 1 µM", "result": 20.5, "unit": "%"}]}
{"molecule": "O=c1n(CCn2cccn2)nc2ccc(-c3ccc(OC(F)(F)F)cc3)cn12", "note": "[compound 35, 2-(2-(1H-pyrazol-1-yl)ethyl)-6-(4-(trifluoromethoxy)phenyl)-[1,2,4]triazolo[4,3-a]pyridin-3(2H)-one]", "values": [{"measurement": "inhibition at 1 µM", "result": 12.2, "unit": "%"}]}
{"molecule": "C[Si](C)(C)c1ccc(-c2ccc3nn(CCOc4ncccn4)c(=O)n3c2)cc1", "note": "[compound 123, 2-(2-(pyrimidin-2-yloxy)ethyl)-6-(4-(trimethylsilyl)phenyl)-[1,2,4]triazolo[4,3-a]pyridin-3(2H)-one]", "values": [{"measurement": "inhibition at 1 µM", "result": 38, "unit": "%"}]}
{"molecule": "Cc1noc(Cn2nc3ccc(-c4ccc(C(F)(F)F)cc4)cn3c2=O)n1", "note": "[compound 137, 2-((3-methyl-1,2,4-oxadiazol-5-yl)methyl)-6-(4-(trifluoromethyl)phenyl)-[1,2,4]triazolo[4,3-a]pyridin-3(2H)-one]", "values": [{"measurement": "inhibition at 1 µM", "result": 28.8, "unit": "%"}]}
{"molecule": "O=c1n(CC(O)COc2ccccc2)nc2ccc(-c3ccc(OC(F)(F)F)cc3)cn12", "note": "(stereo not shown) [compound 43, 2-(2-hydroxy-3-phenoxypropyl)-6-(4-(trifluoromethoxy)phenyl)-[1,2,4]triazolo[4,3-a]pyridin-3(2H)-one]", "values": [{"measurement": "inhibition at 1 µM", "result": 19.3, "unit": "%"}]}
